Numbering of substitutions follows the chain as printed. “Also recorded” adds a separate entry of the source.
Tests used:
DU145 cells = assay: MTT assay (cytotoxicity), DU145 cells; type: cell-based; settings: DU145 cells, 72 h, Table 4.2
Method in brief: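 Seed 6-7×10^3 cells/well; incubate overnight; replace with fresh RPMI 1640 + 10% FBS containing compound or DMSO; incubate 72 h; measure viable cells by MTT.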

[1] = biological target: T1, H874Y mutant of full-length AR (Homo sapiens, UniProt P10275, H875Y); assay: AR H874Y mutant PSA-luc reporter assay in PC3 cells; type: cell-based; settings: for inhibition of DHT-induced transactivation of H874Y mutant AR (PSA-luc): 10 nM DHT, PC3 cells, 24 h
T1 sequence (P10275 1-920 H875Y): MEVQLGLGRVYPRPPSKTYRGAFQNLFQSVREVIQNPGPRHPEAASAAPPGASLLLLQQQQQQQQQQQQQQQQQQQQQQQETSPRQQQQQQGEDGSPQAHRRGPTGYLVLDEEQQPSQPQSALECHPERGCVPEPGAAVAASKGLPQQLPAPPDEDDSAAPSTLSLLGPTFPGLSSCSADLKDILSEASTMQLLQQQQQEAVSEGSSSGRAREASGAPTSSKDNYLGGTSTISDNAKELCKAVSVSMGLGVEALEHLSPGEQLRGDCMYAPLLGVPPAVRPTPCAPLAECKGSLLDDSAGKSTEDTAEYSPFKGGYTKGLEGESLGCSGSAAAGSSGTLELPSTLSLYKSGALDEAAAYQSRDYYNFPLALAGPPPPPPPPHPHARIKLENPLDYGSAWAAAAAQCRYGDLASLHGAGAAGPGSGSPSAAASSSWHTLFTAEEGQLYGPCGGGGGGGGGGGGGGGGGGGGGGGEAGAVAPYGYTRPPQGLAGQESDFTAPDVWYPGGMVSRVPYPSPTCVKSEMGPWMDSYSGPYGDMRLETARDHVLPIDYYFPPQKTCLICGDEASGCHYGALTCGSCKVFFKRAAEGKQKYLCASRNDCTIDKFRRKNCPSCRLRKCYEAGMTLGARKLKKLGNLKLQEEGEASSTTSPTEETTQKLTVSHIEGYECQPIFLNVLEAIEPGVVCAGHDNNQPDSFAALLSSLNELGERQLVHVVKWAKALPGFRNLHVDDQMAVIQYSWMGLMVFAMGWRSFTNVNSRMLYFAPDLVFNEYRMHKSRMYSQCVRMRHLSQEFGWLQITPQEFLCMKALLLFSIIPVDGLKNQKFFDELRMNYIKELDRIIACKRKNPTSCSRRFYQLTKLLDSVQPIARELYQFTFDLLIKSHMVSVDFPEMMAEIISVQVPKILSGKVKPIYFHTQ

WT full-length AR = biological target: T2, WT full-length AR (Homo sapiens, UniProt P10275); assay: WT full-length AR PSA-luc reporter assay (DHT-induced) in transfected cells; settings: 24 h; for inhibition of DHT-induced activation of WT full-length AR (PSA-luc): 10 nM DHT; for agonism of full-length AR WT (PSA-luc): absence of DHT, PC3 cells
T2 sequence (P10275 1-920): T1 sequence (P10275 1-920 H875Y) with Y875H

Compound	IC50 (DU145 cells) [µM]	agonism of AR H874Y mutant [1]	inhibition of DHT-induced transactivation of H874Y mutant AR (PSA-luc) [1]	inhibition of DHT-induced activation of WT full-length AR (PSA-luc) (WT full-length AR)	agonism of full-length AR WT (PSA-luc) (WT full-length AR)
O=C(Nc1cccc(C(F)(F)F)c1)Nc1ccc([N+](=O)[O-])c(C(F)(F)F)c1 [Compound 442]	1.5	non-agonist	dose-dependently suppressed; also recorded: dose-dependently inhibit	dose-dependently suppressed; also recorded: dose-dependently inhibit	non-agonist
N#Cc1ccc(NC(=O)Nc2cccc(C(F)(F)F)c2)cc1C(F)(F)F [Compound 467]	1.6	non-agonist	dose-dependently suppressed; also recorded: dose-dependently inhibit	dose-dependently suppressed; also recorded: dose-dependently inhibit	non-agonist
N#Cc1ccc(NC(=O)Nc2cccc(C(F)(F)F)c2)cc1Cl [Compound 492]	5.1	non-agonist	dose-dependently suppressed; also recorded: dose-dependently inhibit	dose-dependently suppressed; also recorded: dose-dependently inhibit	non-agonist
O=C(N/C=C/c1cccc(C(F)(F)F)c1)Nc1ccncn1 [Compound 562]			inhibit	dose-dependently inhibit	
O=C(Nc1cccc(C(F)(F)F)c1)Nc1ccc(NC(=O)c2ccccc2F)c(C(F)(F)F)c1 [Compound 746]			inhibit	dose-dependently inhibit	

Reference: patent US20170273922A1, “UREA AND BIS-UREA BASED COMPOUNDS AND ANALOGUES THEREOF USEFUL IN THE TREATMENT OF ANDROGEN RECEPTOR MEDIATED DISEASES OR DISORDERS” (THE ROYAL INSTITUTION FOR THE ADVACEMENT OF LEARNING/MCGILL …, priority 2014, published 2017)
